Activity calls are given as the source filed them. The calls are words filed in the database; no cut-off is given here.
Tests used:
[1] = Activity against Escherichia coli DnaK ATPase activity
[2] = Activity against bovine Hsp70 ATPase activity; set-up: species or system Bos taurus
[3] = Activation of bovine Hsp70 ATPase activity; set-up: species or system Bos taurus
Escherichia coli = assay: (§1) Activation of Escherichia coli DnaK ATPase activity
[4] = as §1
[5] = Inhibition of Escherichia coli DnaK ATPase activity
[6] = Inhibition of bovine Hsp70 ATPase activity; set-up: species or system Bos taurus

| SMILES | EC50 [1] [µM] | EC50 [2] [µM] | other results |
| --- | --- | --- | --- |
| CCOC(=O)C1=C(C)N(CCCC(=O)NCCC(=O)NCCC(=O)NCCC(=O)O)C(=O)NC1c1ccc(Br)cc1 (centres undefined) | > 400 | > 400 | – |
| CCOC(=O)C1=C(C)N(CCCC(=O)N[C@@H](CCCCN)CC(=O)N[C@H](CC(=O)NCCC(=O)O)[C@@H](C)CC)C(=O)NC1c1ccc(Br)cc1 (some centres undefined) | – | – | EC50 [3]: 352 µM; Activity (Escherichia coli): inactive |
| CCOC(=O)C1=C(C)N(CCCC(=O)NCCC(=O)NCCC(=O)O)C(=O)NC1c1ccc(Br)cc1 (centres undefined) | > 400 | > 400 | – |
| CCOC(=O)C1=C(C)N(CCCC(=O)OC)C(=O)NC1c1ccc(Br)cc1 (centres undefined) | – | – | EC50 [3]: 213 µM; Activity (Escherichia coli): inactive |
| CCOC(=O)C1=C(C)N(CCCC(=O)N[C@H](CC(=O)NCCC(=O)O)Cc2cccc3ccccc23)C(=O)NC1c1ccc(Br)cc1 (some centres undefined) | – | – | EC50 [3]: 179 µM; EC50 [4]: 190 µM |
| CCOC(=O)C1=C(C)N(CCCC(=O)N[C@H](CC(=O)N[C@H](CC(=O)NCCC(=O)O)c2ccccc2)CC(C)C)C(=O)NC1c1ccc(Br)cc1 (some centres undefined) | > 400 | > 400 | – |
| CCOC(=O)C1=C(C)N(CCCC(=O)N[C@@H](CCCCN)CC(=O)N[C@@H](CCc2ccccc2)CC(=O)NCCC(=O)O)C(=O)NC1c1ccc(Br)cc1 (some centres undefined) | – | – | EC50 [5]: 107 µM; EC50 [6]: 105 µM |
| CCOC(=O)C1=C(C)N(CCCC(=O)O)C(=O)NC1c1ccc(Br)cc1 (centres undefined) | > 400 | > 400 | – |
| CCOC(=O)C1=C(C)N(CCCC(=O)N[C@H](CC(=O)N[C@H](CC(=O)NCCC(=O)O)CC(C)C)CC(C)C)C(=O)NC1c1ccc(Br)cc1 (some centres undefined) | > 400 | > 400 | – |
| CCOC(=O)C1=C(C)N(CCCC(=O)N[C@@H](CCc2ccccc2)CC(=O)NCCC(=O)O)C(=O)NC1c1ccc(Br)cc1 (some centres undefined) | – | – | EC50 [3]: 190 µM; Activity (Escherichia coli): inactive |
| CCOC(=O)C1=C(C)N(CCCC(=O)N[C@H](CC(=O)N[C@H](CC(=O)NCCC(=O)O)Cc2cccc3ccccc23)C(C)C)C(=O)NC1c1ccc(Br)cc1 (some centres undefined) | – | – | EC50 [3]: 255 µM; Activity (Escherichia coli): inactive |
| CCOC(=O)C1=C(C)N(CCCC(=O)N[C@@H](CCc2ccccc2)CC(=O)N[C@@H](CCCCN)CC(=O)NCCC(=O)O)C(=O)NC1c1ccc(Br)cc1 (some centres undefined) | – | – | EC50 [5]: 325 µM; EC50 [6]: 265 µM |

The next lines start with results.

| EC50 [1] [µM] | EC50 [2] [µM] | SMILES | other results |
| --- | --- | --- | --- |
| > 400 | > 400 | CCOC(=O)C1=C(C)N(CCCC(=O)N[C@@H](CCCCN)CC(=O)NCCC(=O)O)C(=O)NC1c1ccc(Br)cc1 (some centres undefined) | – |
| > 400 | > 400 | CCOC(=O)C1=C(C)N(CCCC(=O)N[C@H](CC(=O)NCCC(=O)O)CC(C)C)C(=O)NC1c1ccc(Br)cc1 (some centres undefined) | – |
| > 400 | > 400 | CCOC(=O)C1=C(C)N(CCCC(=O)N[C@H](CC(=O)NCCC(=O)O)[C@@H](C)CC)C(=O)NC1c1ccc(Br)cc1 (some centres undefined) | – |
| > 400 | > 400 | CCOC(=O)C1=C(C)N(CCCC(=O)N[C@H](CC(=O)NCCC(=O)O)C(C)C)C(=O)NC1c1ccc(Br)cc1 (some centres undefined) | – |
| > 400 | > 400 | CCOC(=O)C1=C(C)N(CCCC(=O)N[C@H](CC(=O)NCCC(=O)O)c2ccccc2)C(=O)NC1c1ccc(Br)cc1 (some centres undefined) | – |

Source: ChEMBL document CHEMBL1143861, “Chemical modulators of heat shock protein 70 (Hsp70) by sequential, microwave-accelerated reactions on solid phase” (Bioorg Med Chem Lett, 2008)
